Laboratory results taken from ChEMBL document CHEMBL1268921, “New pyridazinone derivatives with vasorelaxant and platelet antiaggregatory activities” (Bioorg Med Chem Lett, 2010).
pIC50: −log10 of the molar value. Active and inactive are the calls of the source. The calls are words filed in the database; no cut-off is given here.

What was measured:
[1] = Antiplatelet activity against human platelet assessed as inhibition of collagen-induced platelet aggregation; type: functional, cell-based
Aorta = test: Vasorelaxant activity against noradrenaline-induced contraction in intact rat aortic rings; type: functional, tissue-based
Platelet = test: Antiplatelet activity against human platelet assessed as inhibition of thrombin-induced platelet aggregation at <100 uM; type: functional, cell-based
[2] = molecular target: Prostaglandin G/H synthase 1 (Homo sapiens) (UniProt P23219); test: Inhibition of COX1
Sequence of Prostaglandin G/H synthase 1 (Homo sapiens) (P23219 whole entry): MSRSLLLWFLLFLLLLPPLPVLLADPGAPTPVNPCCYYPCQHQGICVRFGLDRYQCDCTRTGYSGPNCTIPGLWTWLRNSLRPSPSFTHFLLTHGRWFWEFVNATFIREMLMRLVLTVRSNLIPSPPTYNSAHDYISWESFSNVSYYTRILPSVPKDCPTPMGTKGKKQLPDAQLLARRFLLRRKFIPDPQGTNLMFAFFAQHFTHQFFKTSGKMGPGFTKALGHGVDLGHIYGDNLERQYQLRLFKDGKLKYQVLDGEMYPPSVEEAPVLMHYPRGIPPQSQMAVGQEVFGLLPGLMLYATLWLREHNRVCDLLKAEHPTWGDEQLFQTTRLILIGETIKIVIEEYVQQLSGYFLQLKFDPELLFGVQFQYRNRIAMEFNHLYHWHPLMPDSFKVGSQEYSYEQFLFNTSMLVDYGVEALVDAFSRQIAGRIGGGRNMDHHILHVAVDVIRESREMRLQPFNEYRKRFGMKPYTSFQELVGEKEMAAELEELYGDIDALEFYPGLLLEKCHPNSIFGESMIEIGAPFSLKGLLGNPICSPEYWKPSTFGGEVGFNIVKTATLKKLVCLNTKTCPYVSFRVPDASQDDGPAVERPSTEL

Structure (SMILES) | pIC50 [1] | pIC50 (Aorta) | inhibition [2] | Activity (Platelet)
O=c1ccc(CCCO)n[nH]1 | < 4.00 | < 4.00 | – | Active
O=c1ccc(CCO)nn1Cc1ccccc1 | < 4.00 | < 4.00 | – | Active
Cn1nc(CCCO)ccc1=O | < 4.00 | < 4.00 | – | Active
Cn1nc(CO)ccc1=O | 4.16 | < 4.00 | – | Active
O=c1ccc(CCO)n[nH]1 | 4.19 | < 4.00 | – | Active
O=c1ccc(CO)nn1Cc1ccccc1 | < 4.00 | < 4.00 | – | Active
O=c1ccc(CO)n[nH]1 | < 4.00 | < 4.00 | – | Active
Cc1[nH]c(=O)c(C#N)cc1-c1ccncc1 [MILRINONE] | 4.41 | 6.91 | – | –
O=c1ccc(CCCO)nn1Cc1ccccc1 | 5.33 | < 4.00 | – | Active
Cn1nc(CCO)ccc1=O | 4.22 | < 4.00 | – | Active

The next lines start with results.

pIC50 [1] | pIC50 (Aorta) | inhibition [2] | Structure (SMILES) | Activity (Platelet)
5.23 | 4.49 | – | O=c1ccc(CCCOCc2ccccc2)nn1Cc1ccccc1 | Active
5.10 | 4.45 | – | O=c1ccc(COCc2ccccc2)nn1Cc1ccccc1 | Active
5.34 | < 4.00 | – | CC(C)(C)[Si](OCc1ccc(=O)n(Cc2ccccc2)n1)(c1ccccc1)c1ccccc1 | Active
5.50 | 4.33 | Active | Cn1nc(CCO[Si](c2ccccc2)(c2ccccc2)C(C)(C)C)ccc1=O | Active
5.34 | 4.23 | – | Cn1nc(CO[Si](c2ccccc2)(c2ccccc2)C(C)(C)C)ccc1=O | Active
< 4.00 | < 4.00 | – | Cn1nc(CCOCc2ccccc2)ccc1=O | Active
< 4.00 | < 4.00 | – | Cn1nc(COCc2ccccc2)ccc1=O | Active
5.41 | 4.25 | – | CC(C)(C)[Si](OCCc1ccc(=O)[nH]n1)(c1ccccc1)c1ccccc1 | Active
4.29 | 4.12 | – | Cn1nc(CCCOCc2ccccc2)ccc1=O | Active
5.74 | 4.20 | – | CC(C)(C)[Si](OCc1ccc(=O)[nH]n1)(c1ccccc1)c1ccccc1 | Active
5.63 | < 4.00 | – | Cn1nc(CCCO[Si](c2ccccc2)(c2ccccc2)C(C)(C)C)ccc1=O | Active
5.39 | 4.49 | – | O=c1ccc(CCOCc2ccccc2)nn1Cc1ccccc1 | Active
5.41 | 4.40 | – | CC(C)(C)[Si](OCCCc1ccc(=O)n(Cc2ccccc2)n1)(c1ccccc1)c1ccccc1 | Active
5.67 | 4.11 | – | CC(C)(C)[Si](OCCCc1ccc(=O)[nH]n1)(c1ccccc1)c1ccccc1 | Active
5.32 | < 4.00 | – | CC(C)(C)[Si](OCCc1ccc(=O)n(Cc2ccccc2)n1)(c1ccccc1)c1ccccc1 | Active
